Experimental data taken from US12357711B2, “PSMA binding dual mode radiotracer and therapeutic” (Technische Universität München, priority 2019, dated 2025).
Where “and” joins values, the source holds several entries; their conditions need not be identical. Equal values may be shown once. Read-outs that look alike come from different tables or passages of the source. Marks after values point to notes of the source that are not given here.

What was measured:
PSMA = target: T1, PSMA (Homo sapiens, UniProt Q04609); assay: Determination of IC50: PSMA affinity, competitive binding on LNCaP cells against ([125I]I-BA)KuE; settings: LNCaP cells, [125I]IB-KuE c=0.2 nM, 1 h, 4° C.
T1 construct: endogenous in cells; host or cells: LNCaP cells
Experimental: Data are expressed as mean±SD (n=3, in 3 different experiments).
After removal of the culture medium, the cells were treated once with 500 μL of HBSS (Hank's balanced salt solution, Biochrom, Berlin, Germany, with addition of 1% bovine serum albumin (BSA)) and left 15 min on ice for equilibration in 200 μL HBSS (1% BSA). […] Quantification of bound and free radioligand was accomplished in a γ-counter.

[1] = Octanol-water partition coefficient (n-octanol/PBS pH 7.4); type: physicochemical; settings: octanol/PBS7.4
Experimental: Approximately 1 MBq of the labeled tracer was dissolved in 1 mL of a 1:1 mixture (by volumes) of phosphate buffered saline (PBS, pH 7.4) and n-octanol in an Eppendorf tube. After vigorous mixing of the suspension for 3 minutes at room temperature, the vial was centrifuged at 15000 g for 3 minutes (Biofuge 15, Heraus Sepatech, Osterode, Germany) and 100 μL aliquots of both layers were measured in a gamma counter. The experiment was repeated at least six times.
Determianation of the IogP values was carried out in phosphate buffered saline (PBS, pH 7.4) and n-octanol (=logPoct/PBS).

[2] = system: LNCaP tumor-bearing SCID mice; assay: Biodistribution at 1 h p.i. with competition (co-injected PMPA); type: in vivo; settings: co-injected with PMPA (8 mg/kg)
Experimental: FIG. 11: Biodistribution [% ID/g] of ^18F-rhPSMAs co-injected with PMPA (8 mg/kg) at 1 h p.i in LNCaP tumor-bearing SCID mice. Data are expressed as mean±SD (n=3).

[3] = system: LNCaP tumor bearing mouse; assay: Radio-TLC analysis of intact tracer and 18F-fluoride in blood, organ and urine samples, 30 min p.i.; type: in vivo, mice
Experimental: For radio-thin-layer chromatography, aluminum sheets coated with silica gel 60 RP-18 F254s were used with a mobile phase consisting of a 3:2 mixture (v/v) of MeCN in H2O supplemented with 10% of 2 M aqueous NaOAc and 1% of TFA. Analysis was performed using either a Scan-RAM radio-TLC detector (LabLogic Systems Ltd., Sheffield, United Kingdom) or a CR 35 BIO phosphorimager (Duerr Medical GmbH, Bietigheim-Bissingen, Germany).
In order to quantify the relative uptake of each isomer (rhPSMA-7.1-7.4), a tumor-bearing male CB-17-SCID mouse was injected with the racemic mixture of rhPSMA-7 (180-280 MBq, SA=247-349 GBq/μmol, produced at the Klinikum rechts der Isar in a fully automated procedure). The animal was left under anesthesia for 30 min and sacrificed. Urine, blood, liver, kidneys and tumor were collected and processed to the hereafter described procedures. The urine sample was centrifuged for 5 min at 9000 rpm to yield a clear solution and directly subjected to radio-HPLC analysis. Blood was diluted to 1 mL with H2O and centrifuged twice at 13000 g for 5 min. The supernatant was collected and loaded on a Strata X cartridge (33 μm Polymeric Reversed Phase 500 mg, pre-conditioned with 5 mL MeOH, followed by 5 mL H2O). After washing with 5 mL H2O, the cartridge was eluted with a 6:4 mixture (v/v) of MeCN in H2O, supplemented with 1% TFA. The eluate was diluted with water and analysed by radio-HPLC. Tumour, kidneys and liver were homogenised using either a Potter-Elvehjem tissue grinder (Kontes Glass Co, Vineland, USA) or a MM-400 ball mill (Retsch GmbH, Haan, Germany).
The organs (tumour, kidney, liver) were separately homogenised in a 2 mL tube together with 3 grinding balls (3 mm diameter) and 1 mL of extraction buffer (850 μL 1 M HEPES pH7.4, 100 μL 20 mM PMPA and 100 μL 1M NaCl) for 10 min at 30 Hz. The homogenate was centrifuged at 13000 g for 5 min and the supernatant was collected. Subsequently, the pellet was suspended in 1 mL of extraction buffer and homogenized again with the ball mill for 10 min at 30 Hz. After centrifugation (13000 g, 5 min), both supernatants were combined and loaded on a Strata X cartridge (33 μm Polymeric Reversed Phase 500 mg, pre-conditioned with 5 mL MeOH, followed by 5 mL H2O). After washing with 5 mL H2O, the cartridge was eluted with a 6:4 mixture (v/v) of MeCN in H2O, supplemented with 1% TFA. The eluate of each organ was diluted with water and analysed by radio-HPLC.
Radio-TLC Analysis was carried out a) on urine samples by directly subjecting a small volume onto a TLC strip, b) by analysis of a small volume of the non-immobilized activity during the SPE process (the ‘breakthrough fraction’), and c) by analysis of a small volume of the cartridge eluates.
Since none of the reagents and salts normally used for protein precipitation are tested for cold fluoride and to avoid possible liberation of F-18-fluoride from the tracer by isotopic exchange, protein precipitation was not implemented in the sample preparation process—although such protein load often result in limited peak separation, peak tailing and activity that sticks at the start line. The solutions obtained after tissue extraction (or blood centrifugation) were directly used for TLC analysis.

[4] = Phosphoimager, listed as [^18F]rhPSMA7-rac
[5] = TLC Scanner, listed as [^18F]rhPSMA7-rac

T1 sequence (Q04609 whole entry): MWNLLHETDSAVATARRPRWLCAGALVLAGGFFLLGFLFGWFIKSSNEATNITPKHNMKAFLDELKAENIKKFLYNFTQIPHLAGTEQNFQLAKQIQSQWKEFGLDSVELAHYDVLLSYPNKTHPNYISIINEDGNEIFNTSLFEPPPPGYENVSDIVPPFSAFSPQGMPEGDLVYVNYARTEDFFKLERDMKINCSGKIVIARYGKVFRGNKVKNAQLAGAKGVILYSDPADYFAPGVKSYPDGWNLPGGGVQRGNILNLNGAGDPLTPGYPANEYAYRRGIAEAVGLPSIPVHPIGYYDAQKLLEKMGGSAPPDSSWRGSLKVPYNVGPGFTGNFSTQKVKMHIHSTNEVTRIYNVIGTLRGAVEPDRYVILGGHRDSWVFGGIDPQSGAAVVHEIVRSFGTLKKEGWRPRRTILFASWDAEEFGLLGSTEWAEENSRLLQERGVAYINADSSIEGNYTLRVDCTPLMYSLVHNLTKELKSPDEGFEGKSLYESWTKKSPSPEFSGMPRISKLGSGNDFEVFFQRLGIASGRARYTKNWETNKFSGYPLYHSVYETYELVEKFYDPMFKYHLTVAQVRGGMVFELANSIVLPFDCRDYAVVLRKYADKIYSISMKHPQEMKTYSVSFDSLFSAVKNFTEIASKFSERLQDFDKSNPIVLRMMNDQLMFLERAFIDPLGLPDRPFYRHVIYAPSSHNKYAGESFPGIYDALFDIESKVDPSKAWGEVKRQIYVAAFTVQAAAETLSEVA

Molecule: CC(C)(C)[Si](F)(c1ccc(C(=O)NC[C@@H](NC(=O)CC[C@@H](C(=O)O)N2CCN(CC(=O)[O-])CCN(CC(=O)[O-])CCN(CC(=O)[O-])CC2)C(=O)N[C@H](CCCCNC(=O)CCC(=O)NCCC[C@@H](NC(=O)CC[C@H](NC(=O)N[C@@H](CCC(=O)O)C(=O)O)C(=O)O)C(=O)O)C(=O)O)cc1)C(C)(C)C.[Ga+3] [rhPSMA7.3, [^19F][^natGa]D-Dap-S-DOTAGA-rhPSMA7]
- IC50 (PSMA; HBSS+1% BSA, single measurements, read-out: individual IC50 measurements): 3.17 nM and 2.91 nM and 5.35 nM and 5.74 nM and 4.59 nM and 4.45 nM
- IC50 (PSMA; mean of individual measurements, read-out: IC50 Mean): 4.37 nM
- log P Mean ([1]; mean of individual measurements): −3.26
- individual log P measurements ([1]; single measurements): −3.06 and −3.07 and −2.86 and −3.39 and −3.33 and −3.34 and −3.20 and −3.40 and −3.41 and −3.48 and −3.49 and −3.32 and −3.45 and −3.53 and −3.43 and −3.56 and −3.03 and −3.08 and −3.02
- Biodistribution adrenals [2]: 0.07 ± 0.09 % ID/g
- Biodistribution blood [2]: 0.55 ± 0.14 % ID/g
- Biodistribution bone [2]: 0.34 ± 0.22 % ID/g
- Biodistribution heart [2]: 0.26 ± 0.04 % ID/g
- Biodistribution intestine [2]: 0.94 ± 0.97 % ID/g
- Biodistribution kidneys [2]: 15.5 ± 2.2 % ID/g
- Biodistribution liver [2]: 0.46 ± 0.14 % ID/g
- Biodistribution lung [2]: 0.69 ± 0.10 % ID/g
- Biodistribution muscle [2]: 0.09 ± 0.02 % ID/g
- Biodistribution pancreas [2]: 0.11 ± 0.02 % ID/g
- Biodistribution spleen [2]: 0.35 ± 0.02 % ID/g
- Biodistribution stomach [2]: 0.76 ± 0.74 % ID/g
- Biodistribution tumor ([2]; LNCaP tumor): 1.5 ± 0.4 % ID/g

Molecule: [^19F][^natGa]D/L-Dap-R/S-DOTAGA-rhPSMA7 [rhPSMA7-rac]
- Intact tracer, Blood ([3]; Phosphoimager): 96.80%
- Intact tracer, Kidney ([3]; Phosphoimager): 96.48%
- Intact tracer, Tumor ([3]; Phosphoimager): 96.47%
- ^18F-Fluoride, Blood ([3]; Phosphoimager): 3.20%
- ^18F-Fluoride, Kidney ([3]; Phosphoimager): 3.52%
- ^18F-Fluoride, Tumor ([3]; Phosphoimager): 4.15%
- Intact tracer, Liver [3, 4]: 93.92^# % and 74.15^# %
- Intact tracer, Urine [3, 4]: 98.55% and 95.85%
- ^18F-Fluoride, Urine [3, 4]: 1.55% and 4.15%
- Intact tracer, Kidney [3, 5]: 94.04% and 94.58%
- Intact tracer, Urine [3, 5]: 82.51% and 96.2%
- ^18F-Fluoride, Kidney [3, 5]: 5.96% and 5.42%
